# Measured values taken from ChEMBL document CHEMBL1201862, “PubChem BioAssay data set” (2004).
# Activity calls are given as the source filed them.
# Key:
# [1] = biological target: Protein Rev (Human immunodeficiency virus type 1 group M subtype B (isolate WMJ22)(HIV-1), UniProt P05866); experiment: HIV-1 Rev-RRE RNA binding disruptors, dose response, biochemical, protein-RNA interaction (AID 842); design: species or system Human immunodeficiency virus 1
# [2] = biological target: T1, Heat shock factor protein 1 (Mus musculus, UniProt P38532); experiment: inhibition of MG132-induced HSE-luciferase signal, confirmation, cell-based, NIH3T3, luminescence, dose retest (AID 2382); type: functional;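 also: NIH3T3 fibroblasts with HSF1-driven luciferase reporter stressed by proteasome inhibitor MG132; luminescence from HSF1-driven luciferase expression after 8 hours of MG132 stress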
# T1 sequence (P38532 whole entry): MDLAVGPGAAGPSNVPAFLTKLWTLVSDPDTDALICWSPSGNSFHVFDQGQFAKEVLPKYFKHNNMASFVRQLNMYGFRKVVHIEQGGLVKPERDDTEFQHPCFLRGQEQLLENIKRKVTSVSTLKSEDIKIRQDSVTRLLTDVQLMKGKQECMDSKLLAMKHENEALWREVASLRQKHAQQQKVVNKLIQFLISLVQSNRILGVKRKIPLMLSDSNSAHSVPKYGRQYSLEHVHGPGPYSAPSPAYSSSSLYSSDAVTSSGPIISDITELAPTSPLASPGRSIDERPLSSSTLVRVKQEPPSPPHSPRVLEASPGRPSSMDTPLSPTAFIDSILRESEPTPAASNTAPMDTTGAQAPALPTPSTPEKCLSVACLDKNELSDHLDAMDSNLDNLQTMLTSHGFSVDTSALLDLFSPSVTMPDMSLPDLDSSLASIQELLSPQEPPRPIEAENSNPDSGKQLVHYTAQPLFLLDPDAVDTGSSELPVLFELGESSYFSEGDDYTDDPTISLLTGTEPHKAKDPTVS
# [3] = biological target: T2, Cytochrome P450 1A2 (Homo sapiens, UniProt P05177);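 also: PubChem cytochrome P450 panel assay, CYP1A2 panel member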
# T2 sequence (P05177 whole entry): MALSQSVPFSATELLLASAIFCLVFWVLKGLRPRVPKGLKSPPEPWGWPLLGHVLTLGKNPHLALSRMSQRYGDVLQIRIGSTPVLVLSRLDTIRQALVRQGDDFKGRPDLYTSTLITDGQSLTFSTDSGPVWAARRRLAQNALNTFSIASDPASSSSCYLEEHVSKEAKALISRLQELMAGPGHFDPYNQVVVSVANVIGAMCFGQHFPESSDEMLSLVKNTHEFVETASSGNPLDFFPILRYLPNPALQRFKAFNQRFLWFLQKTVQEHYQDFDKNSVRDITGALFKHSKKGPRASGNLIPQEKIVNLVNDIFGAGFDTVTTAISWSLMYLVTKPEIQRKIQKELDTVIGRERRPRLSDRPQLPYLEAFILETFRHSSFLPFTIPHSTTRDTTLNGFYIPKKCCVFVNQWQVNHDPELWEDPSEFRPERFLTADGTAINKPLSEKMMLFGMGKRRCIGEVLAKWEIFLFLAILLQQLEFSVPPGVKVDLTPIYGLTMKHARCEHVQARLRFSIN
# [4] = biological target: Cytochrome P450 3A4 (Homo sapiens, UniProt P08684);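 also: CYP3A4 tested as one member of a cytochrome P450 panel screen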
# [5] = biological target: Tumor necrosis factor (Homo sapiens, UniProt P01375); experiment: TNFa-triggered NF-kB activation inhibitors, SAR follow-up, cell-based, revised (AID 2337); type: functional
# [6] = THP-1 cell cytotoxicity, dose response, cytotoxicity control for non-replicating M. tuberculosis project (AID 489025); type: functional
# [7] = biological target: T3, Nucleotide-binding oligomerization domain-containing protein 1 (Homo sapiens, UniProt Q9Y239); experiment: NOD1 signaling inhibitors, SAR follow-up, revised (AID 2333); type: functional
# T3 sequence (Q9Y239 whole entry): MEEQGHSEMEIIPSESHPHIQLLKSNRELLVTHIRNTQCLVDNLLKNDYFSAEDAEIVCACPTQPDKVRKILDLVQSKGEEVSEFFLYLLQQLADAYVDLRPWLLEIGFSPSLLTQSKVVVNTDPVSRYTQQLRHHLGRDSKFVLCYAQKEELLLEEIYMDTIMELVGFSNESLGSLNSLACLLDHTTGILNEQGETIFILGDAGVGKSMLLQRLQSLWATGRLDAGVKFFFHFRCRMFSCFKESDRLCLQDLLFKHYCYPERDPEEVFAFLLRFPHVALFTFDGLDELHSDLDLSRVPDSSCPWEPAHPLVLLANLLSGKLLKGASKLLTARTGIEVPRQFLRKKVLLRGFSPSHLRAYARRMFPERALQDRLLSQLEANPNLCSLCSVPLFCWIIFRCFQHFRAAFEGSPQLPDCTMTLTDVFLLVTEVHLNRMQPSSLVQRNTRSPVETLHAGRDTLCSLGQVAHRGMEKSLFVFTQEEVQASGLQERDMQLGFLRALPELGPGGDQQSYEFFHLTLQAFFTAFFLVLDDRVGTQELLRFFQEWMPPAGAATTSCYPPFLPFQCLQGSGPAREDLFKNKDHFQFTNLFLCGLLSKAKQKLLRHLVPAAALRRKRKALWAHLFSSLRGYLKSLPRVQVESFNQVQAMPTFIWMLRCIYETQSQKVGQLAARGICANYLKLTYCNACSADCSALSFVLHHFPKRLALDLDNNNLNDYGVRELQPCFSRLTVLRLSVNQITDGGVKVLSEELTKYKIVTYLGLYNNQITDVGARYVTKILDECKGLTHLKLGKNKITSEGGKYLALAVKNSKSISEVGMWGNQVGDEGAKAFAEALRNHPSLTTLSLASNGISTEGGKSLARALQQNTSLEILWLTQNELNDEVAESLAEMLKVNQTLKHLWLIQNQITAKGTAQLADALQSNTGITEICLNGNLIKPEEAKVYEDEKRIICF
# [8] = HepG2 cell cytotoxicity, dose response, cytotoxicity control for non-replicating M. tuberculosis project (AID 489018); type: functional; conditions: Mycobacterium tuberculosis
# [9] = Vero E6 cell cytotoxicity, dose response, cytotoxicity control for non-replicating M. tuberculosis project, secondary assay (AID 492998); type: functional, VeroE6; conditions: Vero C1008
# [10] = biological target: Nucleotide-binding oligomerization domain-containing protein 2 (Homo sapiens, UniProt Q9HC29); experiment: PubChem AID 2334; type: functional
# [11] = cells; type: functional
# [12] = tested on: HEK293; experiment: cells; conditions: Homo sapiens;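 also: cells exposed to compound for 14 hours overnight before viability readout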
# [13] = biological target: NACHT, LRR and PYD domains-containing protein 3 (Homo sapiens, UniProt Q96P20); experiment: NALP3 inhibitors in yeast, dose response, luminescent (AID 488799); type: functional
# [14] = biological target: T4, Mu-type opioid receptor (Homo sapiens, UniProt P35372); experiment: MOR agonists by imaging, SAR follow-up, image-based (AID 2352); type: functional
# [15] = biological target: T5, Delta-type opioid receptor (Homo sapiens, UniProt P41143); experiment: DOR agonists, SAR follow-up, image-based (AID 2370); type: functional
# [16] = biological target: T6, Kappa-type opioid receptor (Homo sapiens, UniProt P41145); experiment: KOR antagonists by imaging, SAR follow-up, image-based (AID 2348); type: functional
# [17] = biological target: T4, Mu-type opioid receptor; experiment: MOR antagonists, SAR follow-up, image-based (AID 2420); type: functional;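 also: compounds added before stimulation of receptor with agonist DAMGO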
# [18] = biological target: T6, Kappa-type opioid receptor; experiment: KOR agonist analogs, imaging readout, SAR follow-up, image-based (AID 2359); type: functional
# [19] = biological target: T5, Delta-type opioid receptor; experiment: DOR antagonists, SAR follow-up, image-based (AID 2357); type: functional
# [20] = biological target: T6, Kappa-type opioid receptor; experiment: kappa opioid receptor blockers, cell-based, luminescence, beta-arrestin, SAR follow-up (AID 2285); type: functional
# [21] = biological target: Melanin-concentrating hormone receptor 1 (Homo sapiens, UniProt Q99705); experiment: Fluorescence-based counterscreen for antagonists of the G-protein coupled receptor 7 (GPR7): cell-based high throughput dose response assay to identify antagonists of the melanin-concentrating hormone receptor 1 (MCHR1).; type: functional
# Melanin-concentrating hormone receptor 1, sequence (Q99705 whole entry): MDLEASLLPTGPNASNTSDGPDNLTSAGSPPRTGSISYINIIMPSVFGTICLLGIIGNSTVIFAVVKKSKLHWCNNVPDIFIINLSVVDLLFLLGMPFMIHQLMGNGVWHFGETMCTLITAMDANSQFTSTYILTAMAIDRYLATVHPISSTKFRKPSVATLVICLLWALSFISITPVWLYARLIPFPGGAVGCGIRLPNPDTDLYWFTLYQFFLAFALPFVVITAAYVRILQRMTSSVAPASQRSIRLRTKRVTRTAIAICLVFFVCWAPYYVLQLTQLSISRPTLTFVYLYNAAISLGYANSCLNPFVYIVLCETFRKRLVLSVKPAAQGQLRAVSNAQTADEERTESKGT
# T6 sequence (P41145 whole entry): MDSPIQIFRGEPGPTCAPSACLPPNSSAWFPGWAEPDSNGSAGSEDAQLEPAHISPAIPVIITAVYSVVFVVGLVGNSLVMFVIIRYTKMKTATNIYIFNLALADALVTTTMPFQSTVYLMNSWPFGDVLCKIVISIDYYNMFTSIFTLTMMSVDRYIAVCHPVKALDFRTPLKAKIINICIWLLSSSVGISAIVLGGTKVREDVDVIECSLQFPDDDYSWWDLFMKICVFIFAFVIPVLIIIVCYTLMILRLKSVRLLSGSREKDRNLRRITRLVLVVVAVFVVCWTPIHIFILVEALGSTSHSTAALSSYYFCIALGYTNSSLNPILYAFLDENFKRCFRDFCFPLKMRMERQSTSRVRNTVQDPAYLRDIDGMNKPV
# T4 sequence (P35372 whole entry): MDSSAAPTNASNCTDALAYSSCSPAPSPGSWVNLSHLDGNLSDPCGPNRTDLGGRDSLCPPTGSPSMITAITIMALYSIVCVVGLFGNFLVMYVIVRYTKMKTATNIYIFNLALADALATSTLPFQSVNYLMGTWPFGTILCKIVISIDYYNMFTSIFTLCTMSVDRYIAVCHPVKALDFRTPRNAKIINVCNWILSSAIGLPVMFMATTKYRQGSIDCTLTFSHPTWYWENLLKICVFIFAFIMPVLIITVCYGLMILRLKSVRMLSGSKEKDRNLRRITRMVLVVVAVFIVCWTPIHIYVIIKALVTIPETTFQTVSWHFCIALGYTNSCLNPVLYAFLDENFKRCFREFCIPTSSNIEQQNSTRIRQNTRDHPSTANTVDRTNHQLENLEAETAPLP
# T5 sequence (P41143 whole entry): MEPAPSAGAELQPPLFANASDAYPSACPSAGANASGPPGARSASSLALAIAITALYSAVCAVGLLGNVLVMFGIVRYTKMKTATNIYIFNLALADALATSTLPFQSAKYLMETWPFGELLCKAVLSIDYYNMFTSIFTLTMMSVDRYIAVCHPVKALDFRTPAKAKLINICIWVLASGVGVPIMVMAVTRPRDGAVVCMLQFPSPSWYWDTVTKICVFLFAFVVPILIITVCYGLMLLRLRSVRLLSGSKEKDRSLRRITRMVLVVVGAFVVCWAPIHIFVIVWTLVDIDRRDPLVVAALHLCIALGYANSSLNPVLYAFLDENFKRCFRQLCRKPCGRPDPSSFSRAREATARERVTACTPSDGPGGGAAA
# NACHT, LRR and PYD domains-containing protein 3, sequence (Q96P20 whole entry, the tested form may be a part): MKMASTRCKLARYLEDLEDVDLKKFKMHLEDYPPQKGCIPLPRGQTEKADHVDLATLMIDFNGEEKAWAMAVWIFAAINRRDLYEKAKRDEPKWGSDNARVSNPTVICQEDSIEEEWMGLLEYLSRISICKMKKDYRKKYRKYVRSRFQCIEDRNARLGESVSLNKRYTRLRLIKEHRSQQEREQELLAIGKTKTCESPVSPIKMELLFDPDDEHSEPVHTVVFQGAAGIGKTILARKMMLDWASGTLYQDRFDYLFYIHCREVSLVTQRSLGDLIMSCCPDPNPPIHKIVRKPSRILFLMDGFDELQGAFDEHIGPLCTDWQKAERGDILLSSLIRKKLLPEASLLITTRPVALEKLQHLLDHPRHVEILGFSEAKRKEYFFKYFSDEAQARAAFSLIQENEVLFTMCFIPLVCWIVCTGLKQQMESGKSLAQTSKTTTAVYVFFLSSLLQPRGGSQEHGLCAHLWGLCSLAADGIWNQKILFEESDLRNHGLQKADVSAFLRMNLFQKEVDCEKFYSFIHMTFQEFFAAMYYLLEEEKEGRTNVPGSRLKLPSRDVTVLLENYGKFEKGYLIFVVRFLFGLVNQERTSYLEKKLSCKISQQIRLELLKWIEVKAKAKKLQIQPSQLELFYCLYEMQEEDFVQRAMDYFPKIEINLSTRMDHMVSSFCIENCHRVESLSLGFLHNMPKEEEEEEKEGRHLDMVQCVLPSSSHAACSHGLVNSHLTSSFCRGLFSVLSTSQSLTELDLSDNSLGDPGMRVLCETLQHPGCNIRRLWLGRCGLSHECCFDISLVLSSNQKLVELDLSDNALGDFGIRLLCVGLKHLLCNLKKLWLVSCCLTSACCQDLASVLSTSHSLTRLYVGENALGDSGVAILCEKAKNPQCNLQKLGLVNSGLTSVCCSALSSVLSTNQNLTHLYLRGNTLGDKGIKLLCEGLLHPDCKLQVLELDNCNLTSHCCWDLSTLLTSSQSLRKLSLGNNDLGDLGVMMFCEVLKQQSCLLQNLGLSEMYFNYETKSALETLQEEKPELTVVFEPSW
# Nucleotide-binding oligomerization domain-containing protein 2, sequence (Q9HC29 whole entry, the tested form may be a part): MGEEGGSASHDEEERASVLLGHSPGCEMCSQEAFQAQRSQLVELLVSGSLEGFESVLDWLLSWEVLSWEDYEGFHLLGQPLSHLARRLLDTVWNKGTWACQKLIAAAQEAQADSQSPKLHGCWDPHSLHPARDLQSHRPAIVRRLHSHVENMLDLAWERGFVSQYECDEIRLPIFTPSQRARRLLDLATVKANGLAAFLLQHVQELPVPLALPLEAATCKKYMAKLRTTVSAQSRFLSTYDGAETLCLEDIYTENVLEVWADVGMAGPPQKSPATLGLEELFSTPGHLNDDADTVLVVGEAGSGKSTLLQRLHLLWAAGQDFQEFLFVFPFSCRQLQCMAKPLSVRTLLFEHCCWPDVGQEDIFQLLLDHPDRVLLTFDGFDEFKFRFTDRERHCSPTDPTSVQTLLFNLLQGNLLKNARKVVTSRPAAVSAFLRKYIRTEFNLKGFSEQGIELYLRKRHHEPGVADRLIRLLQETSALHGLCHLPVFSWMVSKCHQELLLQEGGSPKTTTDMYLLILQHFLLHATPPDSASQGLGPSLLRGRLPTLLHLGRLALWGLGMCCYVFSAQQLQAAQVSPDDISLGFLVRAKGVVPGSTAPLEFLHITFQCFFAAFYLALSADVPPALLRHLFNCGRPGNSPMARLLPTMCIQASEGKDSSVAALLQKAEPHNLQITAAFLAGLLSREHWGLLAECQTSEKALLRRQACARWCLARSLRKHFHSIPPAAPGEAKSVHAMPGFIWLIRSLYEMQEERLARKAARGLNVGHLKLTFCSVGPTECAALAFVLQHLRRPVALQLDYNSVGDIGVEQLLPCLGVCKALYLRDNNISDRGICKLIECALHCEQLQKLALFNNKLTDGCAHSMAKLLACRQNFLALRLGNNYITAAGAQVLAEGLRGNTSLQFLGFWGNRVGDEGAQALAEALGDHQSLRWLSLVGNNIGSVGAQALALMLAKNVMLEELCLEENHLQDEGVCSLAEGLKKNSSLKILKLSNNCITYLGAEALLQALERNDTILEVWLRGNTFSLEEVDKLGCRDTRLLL
# Protein Rev, sequence (P05866 whole entry): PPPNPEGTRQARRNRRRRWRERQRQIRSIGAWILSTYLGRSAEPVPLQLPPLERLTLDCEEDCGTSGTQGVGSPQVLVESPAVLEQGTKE
# Tumor necrosis factor, sequence (P01375 whole entry): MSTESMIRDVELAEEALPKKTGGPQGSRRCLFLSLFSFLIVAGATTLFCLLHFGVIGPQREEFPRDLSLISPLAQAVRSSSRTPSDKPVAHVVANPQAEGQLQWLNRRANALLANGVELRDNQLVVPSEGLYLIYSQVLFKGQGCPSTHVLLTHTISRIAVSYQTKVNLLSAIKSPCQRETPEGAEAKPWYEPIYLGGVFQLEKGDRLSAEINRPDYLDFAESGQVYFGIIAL
# Cytochrome P450 3A4, sequence (P08684 whole entry): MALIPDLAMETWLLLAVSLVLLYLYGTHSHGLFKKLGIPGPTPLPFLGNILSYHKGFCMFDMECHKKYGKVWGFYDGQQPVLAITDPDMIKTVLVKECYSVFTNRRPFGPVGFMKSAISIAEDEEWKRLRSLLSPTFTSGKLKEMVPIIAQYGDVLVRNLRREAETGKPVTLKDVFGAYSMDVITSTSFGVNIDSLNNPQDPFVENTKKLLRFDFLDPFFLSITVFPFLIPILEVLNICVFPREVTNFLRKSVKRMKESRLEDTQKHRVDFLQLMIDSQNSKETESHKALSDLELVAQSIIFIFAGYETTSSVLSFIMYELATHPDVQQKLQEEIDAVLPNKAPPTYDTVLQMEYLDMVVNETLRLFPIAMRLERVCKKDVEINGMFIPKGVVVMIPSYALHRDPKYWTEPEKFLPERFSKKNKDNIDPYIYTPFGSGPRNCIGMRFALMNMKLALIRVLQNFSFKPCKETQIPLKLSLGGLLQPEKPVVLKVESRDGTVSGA
compound,measurement,setting,value
CC[n+]1c(/C=C/Nc2ccccc2)oc2ccccc21,IC50,[1],5.66 µM (active)
same,EC50,[2],> 195 µM (not active)
same,AC50,[3],15.8 µM (inconclusive)
same,AC50,[4],25.1 µM (inconclusive)
CC(=O)Nc1nc2ccccc2n1Cc1ccc(Cl)cc1,IC50,[5],> 20 µM (inactive)
same,CC50,[6],30.9 µM (active)
same,IC50,[7],18.8 µM (active)
same,CC50,[8],> 20 µM (active)
same,CC50,[9],12.9 µM (active)
same,IC50,[10],> 20 µM (inactive)
same,IC50,[11],1.02 µM (active)
same,IC50,[12],> 20 µM (inactive)
O=c1c2cc(Cl)ccc2nc(-c2ccc([N+](=O)[O-])cc2)n1O,IC50,[13],6.6 µM (active)
same,CC50,[6],22.6 µM (active)
same,CC50,[9],17.3 µM (active)
same,IC50,[11],17.8 µM (active)
O=C(c1ccc(CNS(=O)(=O)c2ccccc2)cc1)N1CCN(Cc2ccccc2)CC1,EC50,[14],> 32 µM (inactive)
same,EC50,[15],> 32 µM (inactive)
same,IC50,[16],> 32 µM (inactive)
same,IC50,[17],> 32 µM (inactive)
same,EC50,[18],> 32 µM (inactive)
same,IC50,[19],> 32 µM (inactive)
same,IC50,[20],> 10 µM (inactive)
COC(=O)[C@@H](Cc1c[nH]c2ccccc12)NC(=O)CCC(=O)c1ccc(Br)cc1,IC50,[21],24.5 µM (not active)
